Assay results from patent US10189854B2, “Substituted pyrimidine compounds” (Grünenthal GmbH, priority 2014, dated 2019).

These compounds were tested against human PDE4B1 (Homo sapiens (Human), UniProt Q07343) (assay: cAMP HTRF assay to determine the activity of hPDE4B1). Conditions: IC50 inhibition of PDE4B; human recombinant PDE4B1, cAMP HTRF assay.
Assay type: biochemical
Outline: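 Recombinant human PDE4B1 expressed in Sf9 cells (4.8 U) was incubated with 40 nM cAMP for 30 min at room temperature in Tris buffer, pH 7.8, with MgCl2, DTT and Tween 20. HTRF detection of remaining cAMP followed, with 1 mM IBMX stop, read 60 min later as the 665/620 nm ratio. Results are % inhibition versus control.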

Chain of human PDE4B1 (Q07343 whole entry): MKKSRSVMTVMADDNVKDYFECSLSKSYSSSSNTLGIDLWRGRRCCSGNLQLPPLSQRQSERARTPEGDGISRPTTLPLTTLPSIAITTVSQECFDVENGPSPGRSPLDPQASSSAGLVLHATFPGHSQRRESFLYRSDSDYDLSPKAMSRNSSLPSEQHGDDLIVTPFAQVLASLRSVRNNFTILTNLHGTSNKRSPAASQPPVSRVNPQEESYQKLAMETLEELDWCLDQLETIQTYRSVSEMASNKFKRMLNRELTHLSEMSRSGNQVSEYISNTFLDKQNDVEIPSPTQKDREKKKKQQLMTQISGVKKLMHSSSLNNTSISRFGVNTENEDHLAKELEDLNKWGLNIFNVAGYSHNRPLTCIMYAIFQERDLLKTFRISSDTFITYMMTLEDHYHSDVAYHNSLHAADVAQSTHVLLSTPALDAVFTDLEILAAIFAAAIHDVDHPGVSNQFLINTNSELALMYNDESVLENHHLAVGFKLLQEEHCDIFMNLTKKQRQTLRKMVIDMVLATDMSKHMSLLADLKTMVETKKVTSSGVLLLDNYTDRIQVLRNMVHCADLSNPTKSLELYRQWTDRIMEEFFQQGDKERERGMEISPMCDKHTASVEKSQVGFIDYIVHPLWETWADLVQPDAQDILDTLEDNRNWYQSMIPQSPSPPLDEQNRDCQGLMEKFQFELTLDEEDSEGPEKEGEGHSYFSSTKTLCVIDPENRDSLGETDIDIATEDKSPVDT

IC50 [µM]	Compound
< 0.1	O=C(c1ccc2c(c1)N(c1ncc(-c3ccccc3F)cn1)CC21CC1)N1CCNCC1 [Compound 5, [1-[5-(2-Fluorophenyl)-pyrimidin-2-yl]-spiro[1,2-dihydro-indole-3,1′-cyclopropane]-6-yl]-piperazin-1-yl-methanone]
0.1 to 1	O=C(c1ccc2c(c1)N(c1ncc(-c3ccccc3F)cn1)CC21CC1)N1CCC(CO)CC1 [Compound 98, [1-[5-(2-Fluorophenyl)-pyrimidin-2-yl]-spiro[1,2-dihydro-indole-3,1′-cyclopropane]-6-yl]-[4-(hydroxymethyl)-piperidin-1-yl]-methanone]
1 to 10	O=C(c1ccc2c(c1)N(c1ncc(-c3ccccc3F)cn1)CC21CC1)N1CCC2(CNC2)C1 [Compound 74, (2,6-Diazaspiro[3.4]octan-6-yl)-[1-[5-(2-fluorophenyl)-pyrimidin-2-yl]-spiro[1,2-dihydro-indole-3,1′-cyclopropane]-6-yl]-methanone]
< 0.1	CS(=O)(=O)c1ccc(F)c(-c2cnc(N3CC4(CC4)c4ccc(C(=O)N5CCOCC5)cc43)nc2)c1 [Compound 42, [1-[5-(2-Fluoro-5-methylsulfonyl-phenyl)-pyrimidin-2-yl]-spiro[1,2-dihydro-indole-3,1′-cyclopropane]-6-yl]-morpholin-4-yl-methanone]
< 0.1	O=C(c1ccc2c(n1)N(c1ncc(-c3ccccc3F)cn1)CC21CC1)N1CCOCC1 [Compound 170, [1-[5-(2-Fluorophenyl)-pyrimidin-2-yl]-spiro[1,2-dihydro-pyrrolo[2,3-b]pyridine-3,1′-cyclopropane]-6-yl]-morpholin-4-yl-methanone]
< 0.1	Cc1cc(-c2cnc(N3CC4(CC4)c4ccc(C(=O)N5CCOCC5)cc43)nc2)ccn1 [Compound 159, [1-[5-(2-Methyl-pyridin-4-yl)-pyrimidin-2-yl]-spiro[1,2-dihydro-indole-3,1′-cyclopropane]-6-yl]-morpholin-4-yl-methanone]
< 0.1	NC(=O)c1ccc(-c2cnc(N3CC4(CC4)c4ccc(C(=O)N5CCOCC5)cc43)nc2)cc1 [Compound 63, 4-[2-[6-(Morpholine-4-carbonyl)-spiro[1,2-dihydro-indole-3,1′-cyclopropane]-1-yl]-pyrimidin-5-yl]-benzamide]
< 0.1	COc1ccc(F)c(-c2cnc(N3CC4(CC4)c4ccc(C(=O)N5CCOCC5)cc43)nc2)c1 [Compound 16, [1-[5-(2-Fluoro-5-methoxy-phenyl)-pyrimidin-2-yl]-spiro[1,2-dihydro-indole-3,1′-cyclopropane]-6-yl]-morpholin-4-yl-methanone]
0.1 to 1	O=C(c1ccc2c(c1)N(c1ncc(-c3ccccc3F)cn1)CC21CC1)N1CC[C@H](O)C1 [Compound 45, [1-[5-(2-Fluorophenyl)-pyrimidin-2-yl]-spiro[1,2-dihydro-indole-3,1′-cyclopropane]-6-yl]-[(3S)-3-hydroxy-pyrrolidin-1-yl]-methanone]
< 0.1	O=C(c1ccc2c(c1)N(c1ncc(-c3ccccc3F)cn1)CC21CC1)N1CCN(CCO)CC1 [Compound 34, [1-[5-(2-Fluorophenyl)-pyrimidin-2-yl]-spiro[1,2-dihydro-indole-3,1′-cyclopropane]-6-yl]-[4-(2-hydroxy-ethyl)-piperazin-1-yl]-methanone]
< 0.1	O=C(c1ccc2c(c1)N(c1ncc(-c3c(F)cccc3F)cn1)CC21CC1)N1CCOCC1 [Compound 27, [1-[5-(2,6-Difluoro-phenyl)-pyrimidin-2-yl]-spiro[1,2-dihydro-indole-3,1′-cyclopropane]-6-yl]-morpholin-4-yl-methanone]
0.1 to 1	COC[C@@H]1CCCN1C(=O)c1ccc2c(c1)N(c1ncc(-c3ccccc3F)cn1)CC21CC1 [Compound 92, [1-[5-(2-Fluorophenyl)-pyrimidin-2-yl]-spiro[1,2-dihydro-indole-3,1′-cyclopropane]-6-yl]-[(2S)-2-(methoxymethyl)-pyrrolidin-1-yl]-methanone]
< 0.1	O=C(c1ccc2c(c1)N(c1ncc(-c3ccccc3F)cn1)CC21CC1)N1CCCCC1 [Compound 84, [1-[5-(2-Fluorophenyl)-pyrimidin-2-yl]-spiro[1,2-dihydro-indole-3,1′-cyclopropane]-6-yl]-piperidin-1-yl-methanone]
0.1 to 1	O=C(c1ccc2c(c1)N(c1ncc(-c3ccccc3F)cn1)CC21CC1)N1CCC2(COC2)C1 [Compound 68, [1-[5-(2-Fluorophenyl)-pyrimidin-2-yl]-spiro[1,2-dihydro-indole-3,1′-cyclopropane]-6-yl]-(2-oxa-7-azaspiro[3.4]octan-7-yl)-methanone]
< 0.1	O=C1CN(C(=O)c2ccc3c(c2)N(c2ncc(-c4cccnc4F)cn2)CC32CC2)CCN1 [Compound 176, 4-[1-[5-(2-Fluoro-pyridin-3-yl)-pyrimidin-2-yl]-spiro[1,2-dihydro-indole-3,1′-cyclopropane]-6-carbonyl]-piperazin-2-one]
< 0.1	[1-[5-(6-Fluoro-pyrimidin-4-yl)-pyrimidin-2-yl]-spiro[1,2-dihydro-indole-3,1′-cyclopropane]-6-yl]-morpholin-4-yl-methanone [Compound 205]
0.1 to 1	COc1ccc(C(N)=O)c(-c2cnc(N3CC4(CC4)c4ccc(C(=O)N5CCOCC5)cc43)nc2)c1 [Compound 113, 4-Methoxy-2-[2-[6-(morpholine-4-carbonyl)-spiro[1,2-dihydro-indole-3,1′-cyclopropane]-1-yl]-pyrimidin-5-yl]-benzamide]
0.1 to 1	O=C(NCCN1CCCC1=O)c1ccc2c(c1)N(c1ncc(-c3ccccc3F)cn1)CC21CC1 [Compound 78, 1-[5-(2-Fluorophenyl)-pyrimidin-2-yl]-N-[2-(2-oxo-pyrrolidin-1-yl)-ethyl]-spiro[1,2-dihydro-indole-3,1′-cyclopropane]-6-carboxylic acid amide]
< 0.1	O=C(c1ccc2c(c1)N(c1ncc(-c3ccc(F)cc3F)cn1)CC21CC1)N1CCOCC1 [Compound 8, [1-[5-(2,4-Difluoro-phenyl)-pyrimidin-2-yl]-spiro[1,2-dihydro-indole-3,1′-cyclopropane]-6-yl]-morpholin-4-yl-methanone]
< 0.1	N#Cc1ccc(-c2cnc(N3CC4(CC4)c4ccc(C(=O)N5CCOCC5)cc43)nc2)s1 [Compound 143, 5-[2-(6-(Morpholine-4-carbonyl)-spiro[1,2-dihydro-indole-3,1′-cyclopropane]-1-yl]-pyrimidin-5-yl]-thiophene-2-carbonitrile]
< 0.1	O=C(c1ccc2c(c1)N(c1ncc(-c3cc(OC(F)(F)F)ccc3F)cn1)CC21CC1)N1CCNCC1 [Compound 72, [1-[5-[2-Fluoro-5-(trifluoromethyloxy)-phenyl]-pyrimidin-2-yl]-spiro[1,2-dihydro-indole-3,1′-cyclopropane]-6-yl]-piperazin-1-yl-methanone]
< 0.1	Cn1cc(-c2cnc(N3CC4(CC4)c4ccc(C(=O)N5CCOCC5)cc43)nc2)cn1 [Compound 138, [1-[5-(1-Methyl-1H-pyrazol-4-yl)-pyrimidin-2-yl]-spiro[1,2-dihydro-indole-3,1′-cyclopropane]-6-yl]-morpholin-4-yl-methanone]
< 0.1	CN(CCN)C(=O)c1ccc2c(c1)N(c1ncc(-c3ccccc3F)cn1)CC21CC1 [Compound 41, N-(2-Amino-ethyl)-1-[5-(2-fluorophenyl)-pyrimidin-2-yl]-N-methyl-spiro[1,2-dihydro-indole-3,1′-cyclopropane]-6-carboxylic acid amide]
< 0.1	Cc1ncccc1-c1cnc(N2CC3(CC3)c3ccc(C(=O)N4CCOCC4)cc32)nc1 [Compound 167, [1-[5-(2-Methyl-pyridin-3-yl)-pyrimidin-2-yl]-spiro[1,2-dihydro-indole-3,1′-cyclopropane]-6-yl]-morpholin-4-yl-methanone]
0.1 to 1	N#Cc1ccccc1-c1cnc(N2CC3(CC3)c3ccc(C(=O)N4CCOCC4)cc32)nc1 [Compound 18, 2-[2-[6-(Morpholine-4-carbonyl)-spiro[1,2-dihydro-indole-3,1′-cyclopropane]-1-yl]-pyrimidin-5-yl]-benzonitrile]
< 0.1	O=C(c1ccc2c(c1)N(c1ncc(-c3cccc(F)c3)cn1)CC21CC1)N1CCCC1 [Compound 130, [1-[5-(3-Fluorophenyl)-pyrimidin-2-yl]-spiro[1,2-dihydro-indole-3,1′-cyclopropane]-6-yl]-pyrrolidin-1-yl-methanone]
< 0.1	NC(=O)c1ccc(-c2cnc(N3CC4(CC4)c4ccc(C(=O)N5CCOCC5)cc43)nc2)c(F)c1 [Compound 26, 3-Fluoro-4-[2-[6-(morpholine-4-carbonyl]-spiro[1,2-dihydro-indole-3,1′-cyclopropane]-1-yl]-pyrimidin-5-yl]-benzamide]
< 0.1	O=C(c1ccc2c(c1)N(c1ncc(-c3cccc(F)c3)cn1)CC21CC1)N1CCOCC1 [Compound 57, [1-[5-(3-Fluorophenyl)-pyrimidin-2-yl]-spiro[1,2-dihydro-indole-3,1′-cyclopropane]-6-yl]-morpholin-4-yl-methanone]
< 0.1	O=C(c1ccc2c(c1)N(c1ncc(-c3ccccc3)cn1)CC21CC1)N1CCCC1 [Compound 59, [1-(5-Phenyl-pyrimidin-2-yl)-spiro[1,2-dihydro-indole-3,1′-cyclopropane]-6-yl]-pyrrolidin-1-yl-methanone]
< 0.1	4-[1-[5-(3-Methoxyphenyl)-pyrimidin-2-yl]-spiro[1,2-dihydro-indole-3,1′-cyclopropane]-6-carbonyl]-piperazin-2-one [Compound 189]

Compound	IC50 [µM]
Cn1cccc1-c1cnc(N2CC3(CC3)c3ccc(C(=O)N4CCOCC4)cc32)nc1 [Compound 141, [1-[5-(1-Methyl-1H-pyrrol-2-yl)-pyrimidin-2-yl]-spiro[1,2-dihydro-indole-3,1′-cyclopropane]-6-yl]-morpholin-4-yl-methaone]	< 0.1
[1-[5-(2-Fluorophenyl)-pyrimidin-2-yl]-spiro[1,2-dihydro-pyrrolo[2,3-b]pyridine-3,1′-cyclobutane]-6-yl]-morpholin-4-yl-methanone [Compound 171]	0.1 to 1
